Legend:
Format in all cases: in vivo
[1] = tested on: Italian ryegrass (Lolium multiflorum); test: Test B pre-/postemergence plant response
Method in brief: (§1)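 Seeds in loam–sand blend given preemergence soil spray; separately, plants at one- to two-leaf stage (2–10 cm) sprayed postemergence, compounds in non-phytotoxic solvent with surfactant. Injury rated visually versus untreated controls after ~10 days in greenhouse, 0 (no effect) to 100 (complete control).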

kochia (Kochia scoparia) = test: Test B pre-/postemergence plant response
Method in brief: as §1

[2] = tested on: ragweed (common ragweed, Ambrosia elatior); test: Test B pre-/postemergence plant response
Method in brief: as §1

[3] = tested on: oilseed rape (Brassica napus); test: Test D pre-/postemergence plant response
Method in brief: (§2)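 Visual injury scoring (0–100) at 13 to 15 days in greenhouse. Preemergence sprays on seeded loam/sand; postemergence sprays on 1–4 leaf plants.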

[4] = tested on: barnyardgrass (Echinochloa crus-galli); test: Test D pre-/postemergence plant response
Method in brief: as §2

[5] = tested on: giant foxtail (Setaria faberii); test: Test D pre-/postemergence plant response
Method in brief: as §2

[6] = tested on: pigweed (Amaranthus retroflexus); test: Test D pre-/postemergence plant response
Method in brief: as §2

[7] = tested on: velvetleaf (Abutilon theophrasti); test: Test D pre-/postemergence plant response
Method in brief: as §2

[8] = tested on: johnsongrass (Sorghum halepense); test: Test D pre-/postemergence plant response
Method in brief: as §2

[9] = tested on: blackgrass (Alopecurus myosuroides); test: Test D pre-/postemergence plant response
Method in brief: as §2

[10] = tested on: ducksalad (Heteranthera limosa); test: Test C flooded paddy test plant response; conditions: Flood, 250 g ai/ha; scale of 0 to 100 where 0 is no effect and 100 is complete control; 13 to 15 days
Method in brief: (§3)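 Greenhouse paddy assay, 13–15 days. Treatment into 3 cm floodwater over 2-leaf plants; visual 0–100 rating against controls.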

[11] = tested on: barnyardgrass (Echinochloa crus-galli); test: Test C flooded paddy test plant response; conditions: Flood, 250 g ai/ha; scale of 0 to 100 where 0 is no effect and 100 is complete control; 13 to 15 days
Method in brief: as §3

[12] = tested on: small-flower umbrella sedge (Cyperus difformis); test: Test C flooded paddy test plant response; conditions: Flood, 250 g ai/ha; scale of 0 to 100 where 0 is no effect and 100 is complete control; 13 to 15 days
Method in brief: as §3

rice (Oryza sativa) = test: Test C flooded paddy test plant response; conditions: Flood, 250 g ai/ha; scale of 0 to 100 where 0 is no effect and 100 is complete control; 13 to 15 days
Method in brief: as §3

[13] = 125 g ai/ha, postemergence, 0 to 100 scale, 0 no effect, 100 complete control
[14] = Postemergence, 500 g ai/ha, 0 to 100 scale (0 no effect, 100 complete control)
[15] = Preemergence, 125 g ai/ha, 0 to 100 scale (0 no effect, 100 complete control)
[16] = Preemergence, 500 g ai/ha, 0 to 100 scale where 0 is no effect and 100 is complete control
[17] = Postemergence, 31 g ai/ha, scale 0 to 100 (0 no effect, 100 complete control)
[18] = Postemergence, 62 g ai/ha, scale 0 to 100, 0 no effect, 100 complete control
[19] = Postemergence, 125 g ai/ha, scale 0 to 100, 0 no effect, 100 complete control
[20] = Preemergence, 16 g ai/ha, scale 0 to 100 (0 no effect, 100 complete control)
[21] = Preemergence, 31 g ai/ha, scale 0 to 100 (0 no effect, 100 complete control)
[22] = Preemergence, 62 g ai/ha, scale 0 to 100 (0 no effect, 100 complete control)

FC(F)c1cc(-c2c(Cl)cccc2Oc2ncc(Cl)cn2)no1 [Compound 179]
Plant response rating, Ryegrass, Italian [1, 13]: 90 | Plant response rating, Ryegrass, Italian [1, 14]: 100 | Ryegrass, Italian plant response rating [1, 15]: 20 | Plant response rating, Ryegrass, Italian [1, 16]: 40 | Plant response rating, Kochia (kochia (Kochia scoparia); [13]): 90 | Plant response rating, Kochia (kochia (Kochia scoparia); [14]): 100 | Kochia plant response rating (kochia (Kochia scoparia); [15]): 100 | Plant response rating, Kochia (kochia (Kochia scoparia); [16]): 100 | Plant response rating, Ragweed [2, 13]: 10 | Plant response rating, Ragweed [2, 14]: 30 | Ragweed plant response rating [2, 15]: 10 | Plant response rating, Ragweed [2, 16]: 40 | Plant response rating (scale 0 to 100), Oilseed Rape ([3]; Postemergence, 16 g ai/ha): 40 | Oilseed Rape plant response rating [3, 17]: 75 | Oilseed Rape plant response rating [3, 18]: 85 | Plant response rating, Oilseed Rape [3, 19]: 100 | Plant response rating (scale 0 to 100), Oilseed Rape ([3]; Preemergence, 125 g ai/ha): 100 | Plant response rating, Oilseed Rape [3, 20]: 30 | Plant response rating, Oilseed Rape [3, 21]: 95 | Plant response rating (scale 0 to 100), Barnyardgrass ([4]; Postemergence, 16 g ai/ha): 0 | Barnyardgrass plant response rating [4, 17]: 0 | Plant response rating, Barnyardgrass [4, 18]: 5 | Plant response rating, Barnyardgrass [4, 19]: 5 | Plant response rating (scale 0 to 100), Barnyardgrass ([4]; Preemergence, 125 g ai/ha): 35 | Plant response rating, Barnyardgrass [4, 20]: 0 | Plant response rating, Barnyardgrass [4, 21]: 5 | Plant response rating, Barnyardgrass [4, 22]: 15 | Plant response rating (scale 0 to 100), Foxtail, Giant ([5]; Postemergence, 16 g ai/ha): 5 | Foxtail, Giant plant response rating [5, 17]: 5 | Plant response rating, Foxtail, Giant [5, 18]: 40 | Plant response rating, Foxtail, Giant [5, 19]: 30 | Plant response rating (scale 0 to 100), Foxtail, Giant ([5]; Preemergence, 125 g ai/ha): 85 | Plant response rating, Foxtail, Giant [5, 20]: 5 | Plant response rating, Foxtail, Giant [5, 21]: 30 | Plant response rating, Foxtail, Giant [5, 22]: 85 | Plant response rating (scale 0 to 100), Pigweed ([6]; Postemergence, 16 g ai/ha): 80 | Pigweed plant response rating [6, 17]: 90 | Pigweed plant response rating [6, 18]: 98 | Plant response rating, Pigweed [6, 19]: 98 | Plant response rating (scale 0 to 100), Pigweed ([6]; Preemergence, 125 g ai/ha): 100 | Plant response rating, Pigweed [6, 20]: 30 | Plant response rating, Pigweed [6, 21]: 100 | Plant response rating, Pigweed [6, 22]: 100 | Plant response rating (scale 0 to 100), Velvetleaf ([7]; Postemergence, 16 g ai/ha): 15 | Velvetleaf plant response rating [7, 17]: 20 | Velvetleaf plant response rating [7, 18]: 30 | Plant response rating, Velvetleaf [7, 19]: 70 | Plant response rating (scale 0 to 100), Velvetleaf ([7]; Preemergence, 125 g ai/ha): 100 | Plant response rating, Velvetleaf [7, 20]: 15 | Plant response rating, Velvetleaf [7, 21]: 65 | Plant response rating, Velvetleaf [7, 22]: 85 | Plant response rating (scale 0 to 100), Johnsongrass ([8]; Postemergence, 16 g ai/ha): 0 | Johnsongrass plant response rating [8, 17]: 5 | Plant response rating, Johnsongrass [8, 18]: 5 | Plant response rating, Johnsongrass [8, 19]: 5 | Plant response rating (scale 0 to 100), Johnsongrass ([8]; Preemergence, 125 g ai/ha): 65 | Plant response rating, Johnsongrass [8, 20]: 0 | Plant response rating, Johnsongrass [8, 21]: 0 | Plant response rating, Johnsongrass [8, 22]: 20 | Plant response rating (scale 0 to 100), Blackgrass ([9]; Postemergence, 16 g ai/ha): 5 | Blackgrass plant response rating [9, 17]: 5 | Plant response rating, Blackgrass [9, 18]: 15 | Plant response rating, Blackgrass [9, 19]: 20 | Plant response rating (scale 0 to 100), Blackgrass ([9]; Preemergence, 125 g ai/ha): 80 | Plant response rating, Blackgrass [9, 20]: 0 | Plant response rating, Blackgrass [9, 21]: 30 | Plant response rating, Blackgrass [9, 22]: 45 | Ducksalad plant response rating [10]: 80 | Barnyardgrass plant response rating [11]: 0 | Sedge, Umbrella plant response rating [12]: 80 | Rice plant response rating (rice (Oryza sativa)): 40

N#Cc1cccc(Oc2ncc(Cl)cn2)c1-c1cc(C(F)F)on1 [Compound 180]
Plant response rating, Ryegrass, Italian [1, 13]: 100 | Plant response rating, Ryegrass, Italian [1, 14]: 100 | Ryegrass, Italian plant response rating [1, 15]: 20 | Plant response rating, Ryegrass, Italian [1, 16]: 70 | Plant response rating, Kochia (kochia (Kochia scoparia); [13]): 100 | Plant response rating, Kochia (kochia (Kochia scoparia); [14]): 100 | Kochia plant response rating (kochia (Kochia scoparia); [15]): 100 | Plant response rating, Kochia (kochia (Kochia scoparia); [16]): 100 | Plant response rating, Ragweed [2, 13]: 50 | Plant response rating, Ragweed [2, 14]: 70 | Ragweed plant response rating [2, 15]: 50 | Plant response rating, Ragweed [2, 16]: 70 | Plant response rating (scale 0 to 100), Oilseed Rape ([3]; Postemergence, 16 g ai/ha): 5 | Oilseed Rape plant response rating [3, 17]: 60 | Oilseed Rape plant response rating [3, 18]: 80 | Plant response rating, Oilseed Rape [3, 19]: 90 | Plant response rating (scale 0 to 100), Oilseed Rape ([3]; Preemergence, 125 g ai/ha): 100 | Plant response rating, Oilseed Rape [3, 20]: 70 | Plant response rating, Oilseed Rape [3, 21]: 95 | Plant response rating, Oilseed Rape [3, 22]: 100 | Plant response rating (scale 0 to 100), Barnyardgrass ([4]; Postemergence, 16 g ai/ha): 0 | Barnyardgrass plant response rating [4, 17]: 0 | Plant response rating, Barnyardgrass [4, 18]: 5 | Plant response rating, Barnyardgrass [4, 19]: 5 | Plant response rating (scale 0 to 100), Barnyardgrass ([4]; Preemergence, 125 g ai/ha): 80 | Plant response rating, Barnyardgrass [4, 20]: 0 | Plant response rating, Barnyardgrass [4, 21]: 0 | Plant response rating, Barnyardgrass [4, 22]: 35 | Plant response rating (scale 0 to 100), Foxtail, Giant ([5]; Postemergence, 16 g ai/ha): 60 | Foxtail, Giant plant response rating [5, 17]: 50 | Plant response rating, Foxtail, Giant [5, 18]: 30 | Plant response rating, Foxtail, Giant [5, 19]: 45 | Plant response rating (scale 0 to 100), Foxtail, Giant ([5]; Preemergence, 125 g ai/ha): 100 | Plant response rating, Foxtail, Giant [5, 20]: 5 | Plant response rating, Foxtail, Giant [5, 21]: 60 | Plant response rating, Foxtail, Giant [5, 22]: 85 | Plant response rating (scale 0 to 100), Pigweed ([6]; Postemergence, 16 g ai/ha): 70 | Pigweed plant response rating [6, 17]: 75 | Pigweed plant response rating [6, 18]: 75 | Plant response rating, Pigweed [6, 19]: 98 | Plant response rating (scale 0 to 100), Pigweed ([6]; Preemergence, 125 g ai/ha): 100 | Plant response rating, Pigweed [6, 20]: 80 | Plant response rating, Pigweed [6, 21]: 98 | Plant response rating, Pigweed [6, 22]: 100 | Plant response rating (scale 0 to 100), Velvetleaf ([7]; Postemergence, 16 g ai/ha): 45 | Velvetleaf plant response rating [7, 17]: 40 | Velvetleaf plant response rating [7, 18]: 35 | Plant response rating, Velvetleaf [7, 19]: 55 | Plant response rating (scale 0 to 100), Velvetleaf ([7]; Preemergence, 125 g ai/ha): 100 | Plant response rating, Velvetleaf [7, 20]: 75 | Plant response rating, Velvetleaf [7, 21]: 85 | Plant response rating, Velvetleaf [7, 22]: 90 | Plant response rating (scale 0 to 100), Johnsongrass ([8]; Postemergence, 16 g ai/ha): 0 | Johnsongrass plant response rating [8, 17]: 0 | Plant response rating, Johnsongrass [8, 18]: 5 | Plant response rating, Johnsongrass [8, 19]: 5 | Plant response rating (scale 0 to 100), Johnsongrass ([8]; Preemergence, 125 g ai/ha): 90 | Plant response rating, Johnsongrass [8, 20]: 0 | Plant response rating, Johnsongrass [8, 21]: 10 | Plant response rating, Johnsongrass [8, 22]: 60 | Plant response rating (scale 0 to 100), Blackgrass ([9]; Postemergence, 16 g ai/ha): 0 | Blackgrass plant response rating [9, 17]: 0 | Plant response rating, Blackgrass [9, 18]: 5 | Plant response rating, Blackgrass [9, 19]: 5 | Plant response rating (scale 0 to 100), Blackgrass ([9]; Preemergence, 125 g ai/ha): 70 | Plant response rating, Blackgrass [9, 20]: 0 | Plant response rating, Blackgrass [9, 21]: 0 | Plant response rating, Blackgrass [9, 22]: 60 | Ducksalad plant response rating [10]: 90 | Barnyardgrass plant response rating [11]: 0 | Sedge, Umbrella plant response rating [12]: 80 | Rice plant response rating (rice (Oryza sativa)): 0
